Assay results: the NIST ThermoML archive (doi:10.1021/je400783h)
± gives the expanded uncertainty stated by the source.

Assay: relative permittivity at various frequencies (dimensionless)
Details: 101 kPa, Liquid, Frequency=2 MHz, capacitive measurement method

Cc1ccc(C=O)o1 [5-methylfurfural]
Details	relative permittivity
278.15 K	45.2 ± 0.2
280.65 K	44.5 ± 0.2
283.15 K	43.7 ± 0.2
285.65 K	43 ± 0.2
288.15 K	42.3 ± 0.2
290.65 K	41.6 ± 0.2
293.15 K	40.9 ± 0.2
295.65 K	40.2 ± 0.2
298.15 K	39.4 ± 0.2
300.65 K	38.7 ± 0.2
303.15 K	38 ± 0.2
305.65 K	37.2 ± 0.2
308.15 K	36.4 ± 0.2
310.65 K	35.8 ± 0.2
313.15 K	35.1 ± 0.2
315.65 K	34.4 ± 0.2
318.15 K	33.7 ± 0.2
320.65 K	33.6 ± 0.2
323.15 K	32.4 ± 0.2
325.65 K	31.7 ± 0.2
328.15 K	31.1 ± 0.2
330.65 K	30.4 ± 0.2
333.15 K	29.8 ± 0.2
335.65 K	29.1 ± 0.2
338.15 K	28.4 ± 0.2

OCC1CCCO1 (stereo not given) [2-tetrahydrofurylmethanol]
Details	relative permittivity
278.15 K	15.2 ± 0.1
280.65 K	15 ± 0.1
283.15 K	15 ± 0.1
285.65 K	14.9 ± 0.1
288.15 K	14.8 ± 0.1
290.65 K	14.7 ± 0.1
293.15 K	14.6 ± 0.1
295.65 K	14.5 ± 0.1
298.15 K	14.4 ± 0.1
300.65 K	14.4 ± 0.1
303.15 K	14.3 ± 0.1
305.65 K	14.2 ± 0.1
308.15 K	14.1 ± 0.1
310.65 K	14 ± 0.1
313.15 K	13.9 ± 0.1
315.65 K	13.8 ± 0.1
318.15 K	13.8 ± 0.1
320.65 K	13.6 ± 0.1
323.15 K	13.5 ± 0.1
325.65 K	13.5 ± 0.1
328.15 K	13.4 ± 0.1
330.65 K	13.3 ± 0.1
333.15 K	13.2 ± 0.1
335.65 K	13.1 ± 0.1
338.15 K	13 ± 0.1
